Patent US10059688B2, “Protein tyrosine kinase modulators and methods of use” (BETTA PHARMACEUTICALS CO., LTD., priority 2013, dated 2018)

Tests used:
Test in all cases: Kinase assay, single dose inhibition (Millipore, 33P-ATP filter binding)
Assay type in all cases: biochemical
EGFR (T790M, L858R) (h) = EGFR (T790M, L858R) (h) (Homo sapiens (Human), UniProt P00533, L858R/T790M); conditions: 0.1 μM test compound, 10 μM ATP; remaining activity relative to DMSO control = 100%
EGFR (L858R) (h) = EGFR (L858R) (h) (Homo sapiens (Human), UniProt P00533, L858R); conditions: 0.1 μM test compound, 10 μM ATP; remaining activity relative to DMSO control = 100%
EGFR (L858R) (h), sequence (P00533 25-1210 L858R): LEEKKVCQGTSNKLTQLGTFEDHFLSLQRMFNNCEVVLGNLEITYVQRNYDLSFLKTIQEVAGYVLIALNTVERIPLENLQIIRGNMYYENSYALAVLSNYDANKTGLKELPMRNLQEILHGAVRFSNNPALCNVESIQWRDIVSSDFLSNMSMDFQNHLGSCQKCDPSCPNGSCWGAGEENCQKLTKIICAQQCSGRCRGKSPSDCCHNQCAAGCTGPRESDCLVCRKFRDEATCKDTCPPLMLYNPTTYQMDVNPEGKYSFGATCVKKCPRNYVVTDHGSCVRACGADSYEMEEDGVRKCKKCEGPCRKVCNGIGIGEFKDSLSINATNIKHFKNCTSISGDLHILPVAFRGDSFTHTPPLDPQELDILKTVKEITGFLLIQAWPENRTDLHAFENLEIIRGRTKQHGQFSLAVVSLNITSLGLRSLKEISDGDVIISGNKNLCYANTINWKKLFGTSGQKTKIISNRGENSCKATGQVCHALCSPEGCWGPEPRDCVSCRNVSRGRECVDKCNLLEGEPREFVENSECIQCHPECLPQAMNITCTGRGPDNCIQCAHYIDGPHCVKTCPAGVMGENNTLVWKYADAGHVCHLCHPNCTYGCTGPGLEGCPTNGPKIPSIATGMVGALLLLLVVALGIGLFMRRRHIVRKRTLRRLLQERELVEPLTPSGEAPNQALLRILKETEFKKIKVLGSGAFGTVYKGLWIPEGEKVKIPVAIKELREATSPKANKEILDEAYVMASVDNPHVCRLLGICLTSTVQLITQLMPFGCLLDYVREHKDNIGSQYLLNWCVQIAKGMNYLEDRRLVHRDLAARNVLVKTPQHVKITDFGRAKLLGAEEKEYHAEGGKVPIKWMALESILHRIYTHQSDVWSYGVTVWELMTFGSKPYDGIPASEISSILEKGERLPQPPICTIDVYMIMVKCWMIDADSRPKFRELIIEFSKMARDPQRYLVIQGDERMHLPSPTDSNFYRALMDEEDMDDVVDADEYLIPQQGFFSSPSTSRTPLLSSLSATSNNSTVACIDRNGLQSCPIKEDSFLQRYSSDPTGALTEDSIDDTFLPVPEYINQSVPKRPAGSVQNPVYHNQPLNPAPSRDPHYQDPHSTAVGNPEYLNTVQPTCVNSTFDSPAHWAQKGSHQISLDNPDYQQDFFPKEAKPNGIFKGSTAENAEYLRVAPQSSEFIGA

EGFR (T790M) (h) = EGFR (T790M) (h) (Homo sapiens (Human), UniProt P00533, T790M); conditions: 0.1 μM test compound, 10 μM ATP; remaining activity relative to DMSO control = 100%
EGFR (T790M) (h), sequence (P00533 25-1210 T790M): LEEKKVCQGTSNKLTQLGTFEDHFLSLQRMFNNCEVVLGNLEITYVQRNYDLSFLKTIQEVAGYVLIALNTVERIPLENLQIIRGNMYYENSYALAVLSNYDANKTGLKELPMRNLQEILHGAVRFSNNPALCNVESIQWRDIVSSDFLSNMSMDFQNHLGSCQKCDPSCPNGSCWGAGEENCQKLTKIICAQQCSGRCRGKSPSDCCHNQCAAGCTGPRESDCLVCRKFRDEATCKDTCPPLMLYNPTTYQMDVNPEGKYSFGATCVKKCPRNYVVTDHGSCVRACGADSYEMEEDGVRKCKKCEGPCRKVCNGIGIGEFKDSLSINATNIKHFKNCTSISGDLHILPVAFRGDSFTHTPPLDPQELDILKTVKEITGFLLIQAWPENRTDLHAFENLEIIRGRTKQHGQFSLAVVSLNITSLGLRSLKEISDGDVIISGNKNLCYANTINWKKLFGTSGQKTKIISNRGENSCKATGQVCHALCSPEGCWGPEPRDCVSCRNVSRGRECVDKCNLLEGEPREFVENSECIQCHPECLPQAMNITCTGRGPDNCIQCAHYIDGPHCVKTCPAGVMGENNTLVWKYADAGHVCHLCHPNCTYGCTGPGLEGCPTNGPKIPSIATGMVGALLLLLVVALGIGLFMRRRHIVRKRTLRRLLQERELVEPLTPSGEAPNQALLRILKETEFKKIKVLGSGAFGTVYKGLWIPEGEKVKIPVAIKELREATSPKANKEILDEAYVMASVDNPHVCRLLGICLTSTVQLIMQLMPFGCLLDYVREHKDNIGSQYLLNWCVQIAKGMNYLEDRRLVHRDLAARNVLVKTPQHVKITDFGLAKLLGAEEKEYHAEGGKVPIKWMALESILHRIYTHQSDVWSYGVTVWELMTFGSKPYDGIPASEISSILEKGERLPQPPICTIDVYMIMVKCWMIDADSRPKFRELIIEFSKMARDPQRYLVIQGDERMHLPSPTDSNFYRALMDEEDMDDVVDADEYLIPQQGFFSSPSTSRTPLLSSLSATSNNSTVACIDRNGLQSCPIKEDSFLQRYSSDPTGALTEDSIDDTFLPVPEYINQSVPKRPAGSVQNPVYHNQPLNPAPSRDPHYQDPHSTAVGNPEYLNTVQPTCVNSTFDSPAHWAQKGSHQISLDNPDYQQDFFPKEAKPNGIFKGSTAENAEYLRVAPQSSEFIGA

ALK (h) = ALK (h) (Homo sapiens (Human), UniProt Q9UM73); conditions: 0.1 μM test compound, 10 μM ATP, remaining activity relative to DMSO control = 100%
EGFR (h) = EGFR (h) (Homo sapiens (Human), UniProt P00533); conditions: 0.1 μM test compound, 10 μM ATP; remaining activity relative to DMSO control = 100%
EGFR (h), sequence (P00533 25-1210): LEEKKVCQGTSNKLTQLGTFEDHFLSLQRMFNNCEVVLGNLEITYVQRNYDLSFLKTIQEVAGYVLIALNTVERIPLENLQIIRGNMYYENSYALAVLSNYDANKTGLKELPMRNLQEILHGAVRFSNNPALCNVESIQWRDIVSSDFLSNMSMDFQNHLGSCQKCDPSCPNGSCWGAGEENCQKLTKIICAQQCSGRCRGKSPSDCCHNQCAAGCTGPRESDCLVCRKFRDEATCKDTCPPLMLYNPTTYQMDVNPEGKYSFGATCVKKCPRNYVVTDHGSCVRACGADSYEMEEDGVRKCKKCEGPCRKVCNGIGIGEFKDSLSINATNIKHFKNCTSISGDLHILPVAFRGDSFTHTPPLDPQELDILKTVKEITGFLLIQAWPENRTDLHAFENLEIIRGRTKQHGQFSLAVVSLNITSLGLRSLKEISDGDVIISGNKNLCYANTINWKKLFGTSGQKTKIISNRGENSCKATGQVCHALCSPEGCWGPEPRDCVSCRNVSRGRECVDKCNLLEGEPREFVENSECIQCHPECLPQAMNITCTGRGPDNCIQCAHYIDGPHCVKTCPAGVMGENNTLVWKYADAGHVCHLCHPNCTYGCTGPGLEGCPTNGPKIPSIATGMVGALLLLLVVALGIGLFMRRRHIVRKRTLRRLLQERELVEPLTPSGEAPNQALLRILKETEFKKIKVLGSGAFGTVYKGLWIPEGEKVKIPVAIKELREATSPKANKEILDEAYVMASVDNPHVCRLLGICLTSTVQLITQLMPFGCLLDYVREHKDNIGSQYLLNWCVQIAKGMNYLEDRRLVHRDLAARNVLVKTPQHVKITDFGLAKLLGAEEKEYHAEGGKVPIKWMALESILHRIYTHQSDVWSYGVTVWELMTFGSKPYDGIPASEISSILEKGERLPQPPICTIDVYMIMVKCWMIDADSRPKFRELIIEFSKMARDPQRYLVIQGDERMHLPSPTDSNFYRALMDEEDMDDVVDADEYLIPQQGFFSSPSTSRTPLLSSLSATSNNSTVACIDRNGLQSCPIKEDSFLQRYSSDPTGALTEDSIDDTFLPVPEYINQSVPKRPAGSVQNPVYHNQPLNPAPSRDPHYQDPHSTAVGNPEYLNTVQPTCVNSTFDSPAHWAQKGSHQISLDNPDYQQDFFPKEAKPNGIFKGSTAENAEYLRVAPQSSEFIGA

EGFR (T790M, L858R) (h), sequence (P00533 25-1210 T790M/L858R): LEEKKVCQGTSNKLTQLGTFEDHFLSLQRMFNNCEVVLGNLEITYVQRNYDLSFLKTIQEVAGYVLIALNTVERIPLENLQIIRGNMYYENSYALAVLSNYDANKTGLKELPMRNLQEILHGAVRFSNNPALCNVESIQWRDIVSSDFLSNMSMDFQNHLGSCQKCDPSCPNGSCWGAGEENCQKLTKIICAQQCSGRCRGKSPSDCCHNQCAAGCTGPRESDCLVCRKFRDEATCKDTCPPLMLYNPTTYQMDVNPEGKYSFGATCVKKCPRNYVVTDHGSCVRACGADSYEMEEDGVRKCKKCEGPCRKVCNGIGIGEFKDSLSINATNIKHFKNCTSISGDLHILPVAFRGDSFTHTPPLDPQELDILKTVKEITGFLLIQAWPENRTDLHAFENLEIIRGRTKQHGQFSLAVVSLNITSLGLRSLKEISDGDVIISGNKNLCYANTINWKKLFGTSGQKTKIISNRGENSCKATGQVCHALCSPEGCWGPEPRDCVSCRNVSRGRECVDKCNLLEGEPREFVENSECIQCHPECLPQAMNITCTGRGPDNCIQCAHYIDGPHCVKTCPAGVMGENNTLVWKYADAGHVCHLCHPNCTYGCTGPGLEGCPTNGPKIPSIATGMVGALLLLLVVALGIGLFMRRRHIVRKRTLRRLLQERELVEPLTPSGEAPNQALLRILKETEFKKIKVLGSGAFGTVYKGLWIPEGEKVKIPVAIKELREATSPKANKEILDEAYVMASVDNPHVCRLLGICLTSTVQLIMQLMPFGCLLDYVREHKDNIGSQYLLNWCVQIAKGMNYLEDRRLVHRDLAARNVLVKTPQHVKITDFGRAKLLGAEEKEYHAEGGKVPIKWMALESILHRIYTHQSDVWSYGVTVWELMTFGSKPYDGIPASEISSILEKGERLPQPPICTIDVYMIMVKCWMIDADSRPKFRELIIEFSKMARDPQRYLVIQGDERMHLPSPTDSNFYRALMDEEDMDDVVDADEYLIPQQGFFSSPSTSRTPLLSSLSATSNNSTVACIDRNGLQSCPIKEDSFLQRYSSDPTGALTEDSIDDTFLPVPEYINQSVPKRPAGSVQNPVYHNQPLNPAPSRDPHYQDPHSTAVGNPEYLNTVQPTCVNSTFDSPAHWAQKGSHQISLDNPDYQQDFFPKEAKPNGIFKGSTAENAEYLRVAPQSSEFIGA

| Structure (SMILES) | Activity (control) % EGFR (T790M, L858R) (h) (EGFR (T790M, L858R) (h)) [%] | Activity (control) % EGFR (L858R) (h) (EGFR (L858R) (h)) [%] | Activity (control) % EGFR (T790M) (h) (EGFR (T790M) (h)) [%] | Activity (control) % EGFR (h) (EGFR (h)) [%] | remaining activity at 0.1 µM (ALK (h); 40 min) [%] | Activity (control) % ALK (h) (ALK (h)) [%] |
| --- | --- | --- | --- | --- | --- | --- |
| C=C(CN(C)CCN(C)C)C(=O)Nc1cccc(Nc2ncc(Cl)c(Nc3ccccc3C(=O)C(=O)N(C)C)n2)c1 [Example 125, N-(3-(5-chloro-4-(2-(2-(dimethylamino)-2-oxoacetyl)phenylamino)pyrimidin-2-ylamino)phenyl)-2-(((2-(dimethylamino)ethyl)(methyl)amino)methyl)acrylamide] | 2 | 54 | 18 | 106 |  | 20 |
| COc1ccc(NC(=O)/C=C/CN(C)C)cc1Nc1ncc(Cl)c(Nc2ccccc2C(=O)C(=O)N(C)C)n1 [Example 80, (E)-N-(3-(5-chloro-4-(2-(2-(dimethylamino)-2-oxoacetyl)phenylamino)pyrimidin-2-ylamino)-4-methoxyphenyl)-4-(dimethylamino)but-2-enamide] | 7 | 43 | 42 | 101 |  | 10 |
| C=C(CN1CCCCC1)C(=O)Nc1cc(Nc2ncc(Cl)c(Nc3ccccc3C(=O)C(=O)N(C)C)n2)ccc1N1CCOCC1 [Example 129, N-(5-(5-chloro-4-(2-(2-(dimethylamino)-2-oxoactyl)phenylamino)pyrimidin-2-ylamino)-2-morpholinophenyl)-2-(piperidin-1-ylmethyl)acrylamide] | 3 | 75 | 24 | 104 |  | 8 |

More lines, main results first:

| Activity (control) % EGFR (T790M, L858R) (h) (EGFR (T790M, L858R) (h)) [%] | Activity (control) % EGFR (L858R) (h) (EGFR (L858R) (h)) [%] | Activity (control) % EGFR (T790M) (h) (EGFR (T790M) (h)) [%] | Activity (control) % EGFR (h) (EGFR (h)) [%] | remaining activity at 0.1 µM (ALK (h); 40 min) [%] | Structure (SMILES) | Activity (control) % ALK (h) (ALK (h)) [%] |
| --- | --- | --- | --- | --- | --- | --- |
| 3 | 37 | 3 | 67 |  | C=C(CN1CCCCC1)C(=O)Nc1ccc(OC)c(Nc2ncc(Cl)c(Nc3ccccc3C(=O)C(=O)N(C)C)n2)c1 [Example 73, N-(3-(5-chloro-4-(2-(2-(dimethylamino)-2-oxoactyl)phenylamino)pyrimidin-2-ylamino)-4-methoxyphenyl)-2-(piperidin-1-ylmethyl)acrylamide] | 17 |
| 6 | 46 | 2 | 74 |  | C=C(CN1CCCC1)C(=O)Nc1ccc(OC)c(Nc2ncc(Cl)c(Nc3ccccc3C(=O)C(=O)N(C)C)n2)c1 [Example 97, N-(3-(5-chloro-4-(2-(2-(dimethylamino)-2-oxoactyl)phenylamino)pyrimidin-2-ylamino)-4-methoxyphenyl)-2-(pyrrolidin-1-ylmethyl)acrylamide] | 23 |
| 54 | 104 | 92 | 99 | 29 | C=CC(=O)Nc1ccc(OC2CCOC2)c(Nc2ncc(Cl)c(Nc3ccccc3C(=O)C(=O)N(C)C)n2)c1 (centres unmarked) [Example 136, N-(3-(5-chloro-4-(2-(2-(dimethylamino)-2-oxoactyl)phenylamino)pyrimidin-2-ylamino)-4-(tetrahydrofuran-3-yloxy)phenyl)acrylamide] |  |
| 1 | 10 | 5 | 67 |  | C=CC(=O)Nc1ccc(OC)c(Nc2ncc(Cl)c(Nc3ccccc3C(=O)C(=O)N3CCN(C)CC3)n2)c1 [Example 89, N-(3-(5-chloro-4-(2-(2-(4-methylpiperazin-1-yl)-2-oxoacetyl)phenylamino)pyrimidin-2-ylamino)-4-methoxyphenyl)acrylamide] | 8 |
